Reference: US7781591B2, “Substituted 3-cyanopyridines as protein kinase inhibitors” (Wyeth LLC, priority 2006, dated 2010)

The molecules below were run against T1, purified recombinant full length PKC theta (Panvera, P2996) (Homo sapiens, UniProt Q04759) (assay: Radioactive kinase assay for inhibition of full length (FL) PKCθ). Settings: average value.
T1 construct: purified recombinant full length PKC theta (Panvera, P2996); purchased Panvera P2996
Type: biochemical
Procedure: This assay is based on the phosphorylation of a biotinylated substrate by a kinase utilizing radiolabeled ATP (ATP γ P33). The substrate was a biotinylated peptide with a sequence of biotin-[…]-C(O)NH2. […] The assay buffer was composed of 100 mM Hepes, pH7.5, 2 mM MgCl2, 20 mM β-glycerophosphate and 0.008% TritonX 100. A reaction mixture of ATP, ATP γ P33 (PerkinElmer), DTT, and the enzyme was prepared in the assay buffer and added to a 96-well polypropylene plate. The compound (diluted in DMSO in a separate 96-well polypropylene plate) was added to the reaction mixture and incubated at room temperature. Following the incubation, the peptide substrate was added to the reaction mixture to initiate the enzymatic reaction. The reaction was terminated with the addition of a stop solution (100 mM EDTA, 0.2% TritonX100, and 20 mM NaHPO4) and transferred from the assay plate to a washed streptavidin-coated 96-well scintiplate (PerkinElmer). […] Counts were recorded for each well as corrected counts per minute (CCPM). The counts were considered corrected because they were adjusted according to a P33 normalization protocol, which corrects for efficiency and background differences between the instrument detectors (software version 4.40.01).
A Radioactive Kinase Assay for Inhibition of Full Length (FL) PKCθ Inhibitors
This assay differs from what was described above in that the enzyme used was purified recombinant full length PKC theta (Panvera, P2996).

T1 sequence (Q04759 whole entry): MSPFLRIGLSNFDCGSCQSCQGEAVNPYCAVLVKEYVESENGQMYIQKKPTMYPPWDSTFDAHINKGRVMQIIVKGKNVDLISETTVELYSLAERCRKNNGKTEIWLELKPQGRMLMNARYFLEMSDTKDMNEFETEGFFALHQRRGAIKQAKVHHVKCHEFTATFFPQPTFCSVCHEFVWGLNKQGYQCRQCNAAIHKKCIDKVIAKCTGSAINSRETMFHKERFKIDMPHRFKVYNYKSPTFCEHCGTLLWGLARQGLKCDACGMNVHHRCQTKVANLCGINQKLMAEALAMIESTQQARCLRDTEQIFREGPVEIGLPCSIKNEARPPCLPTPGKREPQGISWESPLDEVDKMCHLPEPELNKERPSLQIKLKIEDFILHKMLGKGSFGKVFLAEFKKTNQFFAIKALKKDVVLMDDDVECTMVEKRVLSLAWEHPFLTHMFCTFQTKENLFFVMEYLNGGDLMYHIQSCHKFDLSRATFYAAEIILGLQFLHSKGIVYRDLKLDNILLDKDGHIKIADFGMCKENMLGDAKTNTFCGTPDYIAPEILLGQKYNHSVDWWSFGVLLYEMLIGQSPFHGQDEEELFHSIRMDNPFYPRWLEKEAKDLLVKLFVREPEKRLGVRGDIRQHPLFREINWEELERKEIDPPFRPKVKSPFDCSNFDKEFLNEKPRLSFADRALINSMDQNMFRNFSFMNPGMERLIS

SMILES | IC50 [nM]
COCCOc1cc(-c2cncc(C#N)c2Nc2ccc3[nH]c(C)cc3c2)ccc1OC [Compound 157, 5-[4-methoxy-3-(2-methoxyethoxy)phenyl]-4-[(2-methyl-1H-indol-5-yl)amino]nicotinonitrile] | 550
N#Cc1ccc(-c2cccc(-c3cncc(C#N)c3Nc3ccc4[nH]ccc4c3)c2)cc1 [Compound 118, 5-(4′-cyanobiphenyl-3-yl)-4-(1H-indol-5-ylamino)nicotinonitrile] | 90
N#Cc1cncc(-c2cccc(OCc3ccccc3)c2)c1Nc1ccc2[nH]ccc2c1 [Compound 194, 5-[3-(benzyloxy)phenyl]-4-(1H-indol-5-ylamino)nicotinonitrile] | 50
COc1ccc(-c2cncc(C#N)c2Oc2ccc3[nH]ccc3c2)cc1OC [Compound 220, 5-(3,4-dimethoxyphenyl)-4-(1H-indol-5-yloxy)nicotinonitrile] | > 20000
N#Cc1cncc(-c2cccc(OCCN3CCOCC3)c2)c1Nc1cccc2[nH]ccc12 [Compound 170, 4-(1H-indol-4-ylamino)-5-[3-(2-morpholin-4-ylethoxy)phenyl]nicotinonitrile] | 20
N#Cc1cncc(-c2ccccc2-c2ccccc2Cl)c1Nc1ccc2[nH]ccc2c1 [Compound 143, 5-(2′-chlorobiphenyl-2-yl)-4-(1H-indol-5-ylamino)nicotinonitrile] | 910
CN1CCN(C(=O)c2ccc(-c3cccc(-c4cncc(C#N)c4Nc4ccc5[nH]ccc5c4)c3)cc2)CC1 [Compound 207, 4-(1H-indol-5-ylamino)-5-{4′-[(4-methylpiperazin-1-yl)carbonyl]biphenyl-3-yl}nicotinonitrile] | 530
N#Cc1cncc(-c2cccc(-c3ccc(C(=O)N4CCOCC4)cc3)c2)c1Nc1ccc2[nH]ccc2c1 [Compound 206, 4-(1H-indol-5-ylamino)-5-[4′-(morpholin-4-ylcarbonyl)biphenyl-3-yl]nicotinonitrile] | 1140
N#Cc1cncc(-c2ccccc2-c2ccc(Cl)cc2)c1Nc1ccc2[nH]ccc2c1 [Compound 145, 5-(4′-chlorobiphenyl-2-yl)-4-(1H-indol-5-ylamino)nicotinonitrile] | 1920
COCCOc1ccc(-c2cncc(C#N)c2Nc2ccc3cc[nH]c3c2)cc1OC [Compound 161, 4-(1H-indol-6-ylamino)-5-[3-methoxy-4-(2-methoxyethoxy)phenyl]nicotinonitrile] | 5500
N#Cc1cncc(-c2cccc(-c3ccncc3)c2)c1Nc1ccc2[nH]ccc2c1 [Compound 121, 4-(1H-indol-5-ylamino)-5-(3-pyridin-4-ylphenyl)nicotinonitrile] | 170
COc1ccc(-c2cncc(C#N)c2Nc2cc(C)c3[nH]ccc3c2)cc1OC [Compound 217, 5-(3,4-dimethoxyphenyl)-4-[(7-methyl-1H-indol-5-yl)amino]nicotinonitrile] | 360
N#Cc1cncc(-c2ccccc2-c2cccc(Cl)c2)c1Nc1ccc2[nH]ccc2c1 [Compound 144, 5-(3′-chlorobiphenyl-2-yl)-4-(1H-indol-5-ylamino)nicotinonitrile] | 910
N#Cc1cncc(-c2cccc(OCCN3CCOCC3)c2)c1Nc1ccc2cc[nH]c2c1 [Compound 173, 4-(1H-indol-6-ylamino)-5-[3-(2-morpholin-4-ylethoxy)phenyl]nicotinonitrile] | 2630
N#Cc1cncc(-c2cccc(-c3cccc(N)c3)c2)c1Nc1ccc2[nH]ccc2c1 [Compound 117, 5-(3′-aminobiphenyl-3-yl)-4-(1H-indol-5-ylamino)nicotinonitrile] | 140
COCCOc1cc(-c2cncc(C#N)c2Nc2ccc3ncsc3c2)ccc1OC [Compound 156, 4-(1,3-benzothiazol-6-ylamino)-5-[4-methoxy-3-(2-methoxyethoxy)phenyl]nicotinonitrile] | > 20000
COCCOc1ccc(-c2cncc(C#N)c2Nc2ccc3[nH]c(C)cc3c2)cc1OC [Compound 163, 5-[3-methoxy-4-(2-methoxyethoxy)phenyl]-4-[(2-methyl-1H-indol-5-yl)amino]nicotinonitrile] | 320
N#Cc1cncc(-c2cccc(OCCN3CCCC3)c2)c1Nc1cccc2[nH]ccc12 [Compound 169, 4-(1H-indol-4-ylamino)-5-[3-(2-pyrrolidin-1-ylethoxy)phenyl]nicotinonitrile] | 30
N#Cc1cncc(-c2cccc(-c3ccc(C(=O)NCc4ccccc4)cc3)c2)c1Nc1ccc2[nH]ccc2c1 [Compound 204, N-benzyl-3′-[5-cyano-4-(1H-indol-5-ylamino)pyridin-3-yl]biphenyl-4-carboxamide] | 190

SMILES | IC50 [nM]
COCCOc1ccc(-c2cncc(C#N)c2Nc2ccc3[nH]ccc3c2)cc1OC [Compound 160, 4-(1H-indol-5-ylamino)-5-[3-methoxy-4-(2-methoxyethoxy)phenyl]nicotinonitrile] | 140
N#Cc1cncc(-c2cccc(-c3ccsc3)c2)c1Nc1ccc2[nH]ccc2c1 [Compound 141, 4-(1H-indol-5-ylamino)-5-[3-(3-thienyl)phenyl]nicotinonitrile] | 90
COCCOc1cc(-c2cncc(C#N)c2Nc2ccc3cc[nH]c3c2)ccc1OC [Compound 155, 4-(1H-indol-6-ylamino)-5-[4-methoxy-3-(2-methoxyethoxy)phenyl]nicotinonitrile] | 7800
N#Cc1cncc(-c2cccc(-c3cccc(C(=O)O)c3)c2)c1Nc1ccc2[nH]ccc2c1 [Compound 133, 3′-[5-cyano-4-(1H-indol-5-ylamino)pyridin-3-yl]biphenyl-3-carboxylic acid] | 370
N#Cc1cncc(-c2cccc(OCCCl)c2)c1Nc1ccc2[nH]ccc2c1 [Compound 167, 5-[3-(2-chloroethoxy)phenyl]-4-(1H-indol-5-ylamino)nicotinonitrile] | 110
N#Cc1cncc(-c2cccc(-c3cccnc3)c2)c1Nc1ccc2[nH]ccc2c1 [Compound 137, 4-(1H-indol-5-ylamino)-5-(3-pyridin-3-ylphenyl)nicotinonitrile] | 70
Cc1cccc(-c2cccc(-c3cncc(C#N)c3Nc3ccc4[nH]ccc4c3)c2)c1 [Compound 127, 4-(1H-indol-5-ylamino)-5-(3′-methylbiphenyl-3-yl)nicotinonitrile] | 290
COCCOc1ccc(-c2cncc(C#N)c2Nc2ccc3ncsc3c2)cc1OC [Compound 162, 4-(1,3-benzothiazol-6-ylamino)-5-[3-methoxy-4-(2-methoxyethoxy)phenyl]nicotinonitrile] | 15000
N#Cc1cncc(-c2cccc(OCCCl)c2)c1Nc1cccc2[nH]ccc12 [Compound 165, 5-[3-(2-chloroethoxy)phenyl]-4-(1H-indol-4-ylamino)nicotinonitrile] | 20
N#Cc1cncc(-c2cccc(OCCN3CCCC3)c2)c1Nc1ccc2cc[nH]c2c1 [Compound 172, 4-(1H-indol-6-ylamino)-5-[3-(2-pyrrolidin-1-ylethoxy)phenyl]nicotinonitrile] | 2590
N#Cc1cncc(-c2cccc(OCCN3CCCC3)c2)c1Nc1ccc2[nH]ccc2c1 [Compound 174, 4-(1H-indol-5-ylamino)-5-[3-(2-pyrrolidin-1-ylethoxy)phenyl]nicotinonitrile] | 70
N#Cc1cncc(-c2cccc(OCCN3CCOCC3)c2)c1Nc1ccc2[nH]ccc2c1 [Compound 175, 4-(1H-indol-5-ylamino)-5-[3-(2-morpholin-4-ylethoxy)phenyl]nicotinonitrile] | 100
COCCOc1cc(-c2cncc(C#N)c2Nc2ccc3[nH]nnc3c2)ccc1OC [Compound 158, 4-(1H-1,2,3-benzotriazol-5-ylamino)-5-[4-methoxy-3-(2-methoxyethoxy)phenyl]nicotinonitrile] | 37400
N#Cc1cncc(-c2cccc(-c3ccc(C(=O)O)cc3)c2)c1Nc1ccc2[nH]ccc2c1 [Compound 134, 3′-[5-cyano-4-(1H-indol-5-ylamino)pyridin-3-yl]biphenyl-4-carboxylic acid] | 390
CN(C)C(=O)c1ccc(-c2cccc(-c3cncc(C#N)c3Nc3ccc4[nH]ccc4c3)c2)cc1 [Compound 122, 3′-[5-cyano-4-(1H-indol-5-ylamino)pyridin-3-yl]-N,N-dimethylbiphenyl-4-carboxamide] | 340
COCCOc1cc(-c2cncc(C#N)c2Nc2cccc3[nH]ccc23)ccc1OC [Compound 153, 4-(1H-indol-4-ylamino)-5-[4-methoxy-3-(2-methoxyethoxy)phenyl]nicotinonitrile] | 40
CC(=O)Nc1cccc(-c2cncc(C#N)c2Nc2ccc3[nH]ccc3c2)c1 [Compound 152, N-{3-[5-cyano-4-(1H-indol-5-ylamino)pyridin-3-yl]phenyl}acetamide] | 1940
N#Cc1cncc(-c2ccccc2-c2ccsc2)c1Nc1ccc2[nH]ccc2c1 [Compound 146, 4-(1H-indol-5-ylamino)-5-[2-(3-thienyl)phenyl]nicotinonitrile] | 1330
N#Cc1cncc(-c2cccc(OCCCl)c2)c1Nc1ccc2cc[nH]c2c1 [Compound 166, 5-[3-(2-chloroethoxy)phenyl]-4-(1H-indol-6-ylamino)nicotinonitrile] | 3830
